Laboratory results as given in US8431704B2, “Quinoline or isoquinoline substituted P2X7 antagonists” (Janssen Pharmaceutica NV, priority 2008, dated 2013).

Molecular target: T1, hP2X7 (Homo sapiens, UniProt Q99572)
T1 construct: expressed in transfected cells; host or cells: 1321N1 astrocytoma cells
T1 sequence (Q99572 1-595): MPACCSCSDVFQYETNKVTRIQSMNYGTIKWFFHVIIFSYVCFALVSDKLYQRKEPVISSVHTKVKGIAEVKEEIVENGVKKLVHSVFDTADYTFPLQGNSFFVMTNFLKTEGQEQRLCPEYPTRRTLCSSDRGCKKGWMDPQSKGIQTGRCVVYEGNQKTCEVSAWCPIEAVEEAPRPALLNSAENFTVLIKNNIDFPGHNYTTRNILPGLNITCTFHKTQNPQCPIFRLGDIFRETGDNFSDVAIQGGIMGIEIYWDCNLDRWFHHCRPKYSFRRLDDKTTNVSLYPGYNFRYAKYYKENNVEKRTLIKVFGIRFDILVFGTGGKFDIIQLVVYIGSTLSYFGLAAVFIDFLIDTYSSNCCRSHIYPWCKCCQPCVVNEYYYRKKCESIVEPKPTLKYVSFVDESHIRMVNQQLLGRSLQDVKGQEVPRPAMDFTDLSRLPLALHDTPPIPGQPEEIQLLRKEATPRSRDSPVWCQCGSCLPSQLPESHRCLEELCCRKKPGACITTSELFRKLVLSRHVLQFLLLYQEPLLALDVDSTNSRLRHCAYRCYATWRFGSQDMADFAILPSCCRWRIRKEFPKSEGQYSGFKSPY
Test: P2X7 antagonism: ligand-induced Ca2+ flux in 1321N1 astrocytoma cells overexpressing hP2X7
Type: cell-based
Settings: pIC50 = -log(IC50), read-out: hP2RX7pIC50 (mean pIC50 values) (converted)
Description: Extracellular binding of ATP to P2X7 that is expressed in the cell-membrane opens the ligand gated cation channel and allows Ca^2+ entry into the cell. This ligand-induced Ca^2+ flux was measured in 1321N1 astrocytoma cells overexpressing hP2X7 for the compounds of the present invention.
The calcium assay kit used (Molecular Devices, R8090), provides a Ca^2+ sensitive dye together with a quenching dye. However, no specifications are given by the manufacturer. The kit most likely consists of a membrane permeable acetoxymethyl (AM) ester of a fluorescent Ca^2+ indicator, such as fluo-4 or fluo-3. Upon cellular uptake, the AM esters get cleaved by esterases, liberating the Ca^2+-sensitive dye which can then bind calcium. The dyes have an absorption spectrum compatible with excitation at 488 nm by argon laser sources and a large fluorescence intensity increase in response to Ca^2+ binding without an accompanying spectral shift. Emission wavelength is in the range of 510-560 nm.
The fluorescence, and thus the changes in intracellular [Ca^2+] in the 1321N1 cells was monitored in time before and after addition of the agonist. The effect of the antagonist was measured as % control and as IC50.

Row | IC50 | SMILES
1 | 43.7 nM | O=C(NCC(c1ccc(C(F)(F)F)nc1)N1CCC(F)(F)CC1)c1cccc2ncccc12 (single isomer, unassigned) [Compound 10]
2 | 52.5 nM | O=C(NCC(c1ccc(C(F)(F)F)nc1)N1CCC(F)(F)CC1)c1cccc2ncccc12 (single isomer, unassigned) [Compound 11]
3 | 38 nM | O=C(NCC(c1cnc(C(F)(F)F)nc1)N1CCC(F)(F)CC1)c1cccc2ncccc12 (single isomer, unassigned) [Compound 47]
4 | 66.1 nM | O=C(NC[C@H](c1cnc(C(F)(F)F)nc1)N1CCOCC1)c1cccc2nc(NC3CC3)ccc12 (single isomer, unassigned) [Compound 174]
5 | 58.9 nM | O=C(NCC(c1ccc(C(F)(F)F)nc1)N1CCC(F)(F)CC1)c1cccc2ncccc12 (centres unmarked) [Compound 1]
6 | 21.4 nM | O=C(NCC(c1ccc(Br)nc1)N1CCC(F)(F)CC1)c1cccc2ncccc12 (centres unmarked) [Compound 2]
7 | 3630 nM | O=C(NCC(c1cccnc1Cl)N1CCC(F)(F)CC1)c1cccc2ncccc12 (centres unmarked) [Compound 3]
8 | 3240 nM | COc1cc(C(=O)NCC(c2ccc(C(F)(F)F)nc2)N2CCC(F)(F)CC2)nc2ccccc12 (centres unmarked) [Compound 12]
9 | 178 nM | O=C(NCC(c1ccc(C(F)(F)F)nc1)N1CCC(F)(F)CC1)c1ccc2ccccc2n1 (centres unmarked) [Compound 14]
10 | 224 nM | O=C(NCC(c1ccc(C(F)(F)F)nc1)N1CCC(F)(F)CC1)c1cccc2cnccc12 (centres unmarked) [Compound 16]
11 | 55 nM | CCCc1cc(C(=O)NCC(c2ccc(C(F)(F)F)nc2)N2CCC(F)(F)CC2)c2ccccc2n1 (centres unmarked) [Compound 18]
12 | 5250 nM | CCc1cc2cc(C(=O)NCC(c3ccc(C(F)(F)F)nc3)N3CCC(F)(F)CC3)ccc2nc1C (centres unmarked) [Compound 24]
13 | > 10000 nM | O=C(NCC(c1ccccn1)N1CCC(F)(F)CC1)c1cccc2ncccc12 (centres unmarked) [Compound 25]
14 | > 10000 nM | O=C(NCC(c1ccc(C(F)(F)F)nc1)N1CCC(c2ccccc2)CC1)c1cccc2ncccc12 (centres unmarked) [Compound 27]
15 | 107 nM | O=C(NCC(c1ccc(C(F)(F)F)nc1)N1CCOCC1)c1cccc2ncccc12 (centres unmarked) [Compound 31]
16 | 34.7 nM | O=C(NCC(c1cnc(C(F)(F)F)nc1)N1CCC(F)(F)CC1)c1cccc2nc(NCCCO)ccc12 (centres unmarked) [Compound 40]
17 | 45.7 nM | COc1ccc2c(C(=O)NCC(c3cnc(C(F)(F)F)nc3)N3CCC(F)(F)CC3)cccc2n1 (centres unmarked) [Compound 41]
18 | 38 nM | O=C(NCC(c1cnc(C(F)(F)F)nc1)N1CCC(F)(F)CC1)c1cccc2nc(NCC3CC3)ccc12 (centres unmarked) [Compound 42]
19 | 955 nM | O=C(NCC(c1cnc(C(F)(F)F)nc1)N1CCCC1)c1cccc2ncccc12 (centres unmarked) [Compound 45]
20 | 19.1 nM | O=C(NCC(c1cnc(C(F)(F)F)nc1)N1CCCCCC1)c1cccc2ncccc12 (centres unmarked) [Compound 52]
21 | 49 nM | O=C(NCC(c1cnc(C(F)(F)F)nc1)N1CCC(F)(F)CC1)c1cccc2nc(N3CCC(O)C3)ccc12 (centres unmarked) [Compound 56]

Row | IC50 | SMILES
22 | 18.2 nM | O=C(NCC(c1cnc(C(F)(F)F)nc1)N1CCCC(F)(F)C1)c1cccc2ncccc12 (centres unmarked) [Compound 66]
23 | 30.9 nM | O=C(NCC(c1cnc(C(F)(F)F)nc1)N1CCCC(F)C1)c1cccc2ncccc12 (centres unmarked) [Compound 71]
24 | 302 nM | CC1CN(C(CNC(=O)c2cccc3ncccc23)c2cnc(C(F)(F)F)nc2)CCO1 (centres unmarked) [Compound 72]
25 | 50.1 nM | CC1CCCCN1C(CNC(=O)c1cccc2ncccc12)c1cnc(C(F)(F)F)nc1 (centres unmarked) [Compound 73]
26 | 44.7 nM | O=C(NCC(c1cnc(C(F)(F)F)nc1)N1CCCOCC1)c1cccc2nc(N3CCOCC3)ccc12 (centres unmarked) [Compound 87]
27 | 85.1 nM | O=C(NCC(c1cnc(C(F)(F)F)nc1)N1CCCOCC1)c1cccc2nc(NCCO)ccc12 (centres unmarked) [Compound 89]
28 | 87.1 nM | O=C(NCC(c1cnc(C(F)(F)F)nc1)N1CCCOCC1)c1cccc2nc(NCCCO)ccc12 (centres unmarked) [Compound 90]
29 | 81.3 nM | O=C(NCC(c1cnc(C(F)(F)F)nc1)N1CCCOCC1)c1cccc2nc(NCC3CCOCC3)ccc12 (centres unmarked) [Compound 94]
30 | 44.7 nM | O=C(NCC(c1cnc(C(F)(F)F)nc1)N1CCCOCC1)c1cccc2nc(NC3CC3)ccc12 (centres unmarked) [Compound 95]
31 | 52.5 nM | Cc1ncc(C(CNC(=O)c2cccc3nc(N4CCCCC4)ccc23)N2CCOCC2)cn1 (centres unmarked) [Compound 98]
32 | 389 nM | CC(C)(C)OC(=O)N1CCN(c2ccc3c(C(=O)NCC(c4cnc(C(F)(F)F)nc4)N4CCCCCC4)cccc3n2)CC1 (centres unmarked) [Compound 107]
33 | 22.4 nM | O=C(NCC(c1cnc(C(F)(F)F)nc1)N1CCCCCC1)c1cccc2nc(N3CCNCC3)ccc12 (centres unmarked) [Compound 109]
34 | 186 nM | CCN1CCN(c2ccc3c(C(=O)NCC(c4cnc(C)nc4)N4CCOCC4)cccc3n2)CC1 (centres unmarked) [Compound 116]
35 | 182 nM | Cc1ncc(C(CNC(=O)c2cccc3nc(OC(C)C)ccc23)N2CCOCC2)cn1 (centres unmarked) [Compound 117]
36 | 162 nM | Cc1ncc(C(CNC(=O)c2cccc3nc(N4CCN(C(C)C)CC4)ccc23)N2CCOCC2)cn1 (centres unmarked) [Compound 118]
37 | 89.1 nM | Cc1ncc(C(CNC(=O)c2cccc3nc(N4CCCCCC4)ccc23)N2CCOCC2)cn1 (centres unmarked) [Compound 119]
38 | 251 nM | CCOc1ccc2c(C(=O)NCC(c3cnc(C)nc3)N3CCOCC3)cccc2n1 (centres unmarked) [Compound 121]
39 | 115 nM | Cc1ncc(C(CNC(=O)c2cccc3nc(N4CCOCC4)ccc23)N2CCOCC2)cn1 (centres unmarked) [Compound 122]
40 | 14.1 nM | O=C(NCC(c1cnc(C(F)(F)F)nc1)N1CCCC(F)(F)C1)c1cccc2nc(N3CCNCC3)ccc12 (centres unmarked) [Compound 127]
41 | 46.8 nM | O=C(NCC(c1cnc(C(F)(F)F)nc1)N1CCCOCC1)c1cccc2nc(N3CCNCC3)ccc12 (centres unmarked) [Compound 128]
42 | 63.1 nM | Cc1ncc(C(CNC(=O)c2cccc3nc(NCCCO)ccc23)N2CCC(F)(F)CC2)cn1 (centres unmarked) [Compound 132]

Row | IC50 | SMILES
43 | 1050 nM | O=C(NCC(c1cnc(O)nc1)N1CCC(F)(F)CC1)c1cccc2nc(N3CCOCC3)ccc12 (centres unmarked) [Compound 144]
44 | 47.9 nM | O=C(NCC(c1cnc(C(F)(F)F)nc1)N1CCC(F)(F)CC1)c1cccc2nc(NCC3CCOCC3)ccc12 (centres unmarked) [Compound 146]
45 | 64.6 nM | O=C(NCC(c1cnc(C(F)(F)F)nc1)N1CCC(F)CC1)c1cccc2nc(N3CC(O)C3)ccc12 (centres unmarked) [Compound 155]
46 | 46.8 nM | COC1CCN(c2ccc3c(C(=O)NCC(c4cnc(C(F)(F)F)nc4)N4CCOCC4)cccc3n2)CC1 (centres unmarked) [Compound 161]
47 | 45.7 nM | O=C(NCC(c1cnc(C(F)(F)F)nc1)N1CCOCC1)c1cccc2nc(N3CCCC3)ccc12 (centres unmarked) [Compound 162]
48 | 37.2 nM | O=C(NCC(c1cnc(C(F)(F)F)nc1)N1CCOCC1)c1cccc2nc(N3CCCCC3)ccc12 (centres unmarked) [Compound 163]
49 | 49 nM | CCOc1ccc2c(C(=O)NCC(c3cnc(C(F)(F)F)nc3)N3CCOCC3)cccc2n1 (centres unmarked) [Compound 166]
50 | 117 nM | NC1CCN(c2ccc3c(C(=O)NCC(c4cnc(C(F)(F)F)nc4)N4CCOCC4)cccc3n2)CC1 (centres unmarked) [Compound 167]
51 | 75.9 nM | CC(C)Nc1ccc2c(C(=O)NCC(c3cnc(C(F)(F)F)nc3)N3CCOCC3)cccc2n1 (centres unmarked) [Compound 168]
52 | 26.9 nM | O=C(NC[C@H](c1cnc(C(F)(F)F)nc1)N1CCC(F)(F)CC1)c1cccc2nc(N3CCNCC3)ccc12 [Compound 171]
53 | 145 nM | O=C(NCC(c1cnc(C(F)(F)F)nc1)N1CCOCC1)c1cccc2nc(N3CCC(O)C3)ccc12 (centres unmarked) [Compound 172]
54 | 70.8 nM | O=C(NCC(c1cnc(C(F)(F)F)nc1)N1CCOCC1)c1cccc2nc(N3CCN(C4CC4)CC3)ccc12 (centres unmarked) [Compound 173]
55 | 44.7 nM | O=C(NC[C@@H](c1cnc(C(F)(F)F)nc1)N1CCC(F)(F)CC1)c1cccc2nc(NC3CC3)ccc12 [Compound 175]
56 | 186 nM | O=C(NCC(c1cnc(N2CCCC2)nc1)N1CCC(F)(F)CC1)c1cccc2nc(N3CCOCC3)ccc12 (centres unmarked) [Compound 176]
57 | 47.9 nM | O=C(NCC(c1cnc(C(F)(F)F)nc1)N1CCOCC1)c1cccc2nc(N3CCC(F)(F)CC3)ccc12 (centres unmarked) [Compound 177]
58 | 91.2 nM | O=C(NCC(c1cnc(C(F)(F)F)nc1)N1CCOCC1)c1cccc2nc(N3CCCOCC3)ccc12 (centres unmarked) [Compound 178]
59 | 89.1 nM | O=C(NCC(c1cnc(C(F)(F)F)nc1)N1CCOCC1)c1cccc2nc(NC3CCCC3)ccc12 (centres unmarked) [Compound 179]
60 | 67.6 nM | CC(C)CNc1ccc2c(C(=O)NCC(c3cnc(C(F)(F)F)nc3)N3CCOCC3)cccc2n1 (centres unmarked) [Compound 180]
61 | 93.3 nM | CC(C)N1CCN(c2ccc3c(C(=O)NCC(c4cnc(C(F)(F)F)nc4)N4CCOCC4)cccc3n2)CC1 (centres unmarked) [Compound 181]
62 | 112 nM | CC(C)OCCCNc1ccc2c(C(=O)NCC(c3cnc(C(F)(F)F)nc3)N3CCOCC3)cccc2n1 (centres unmarked) [Compound 182]
